Data as given in PubChem BioAssay AID2060897 (Molecular Pharmacology Branch, DTP, NCI, 2025).

System: 966289-007-R4-J1-PDC complex spheroid viability
Test: Anticancer human tumor 966289-007-R4-J1-PDC patient-derived pancreatic adenocarcinoma cell line growth inhibition [RAS]
Settings: for IC50: curve of first compound; for viability, T/C: stronger effect = lower value
Procedure, shortened: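 Agents were tested in combination matrices in half-log decrements from a top concentration at or near clinical Cmax (10 microM if undetermined). Targets were multi-cell spheroids of tumour lines plus HUVEC and MSC stromal cells.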
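Also: spheroids exposed to agents for one week before readout.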
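For viability, T/C in this document: percent viability relative to DMSO vehicle control wells as 100%.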

`O=C(c1ccc(F)c(F)c1Nc1ccc(I)cc1F)N1CC(O)([C@@H]2CCCCN2)C1` + CCn1c(-c2cccnc2C(C)OC)c2c3cc(ccc31)N1CCOC(CC(NC(=O)C(C(C)C)N(C)C(=O)C3(F)CCN(C(=O)C#CC(C)(C)N(C)C)CC3)C(=O)N3CCCC(N3)C(=O)OCC(C)(C)C2)C1 was tested, and the IC50 (second compound 0.000949 µM) was > 1000 nM, the IC50 (second compound 0.003 µM) was > 1000 nM and the IC50 (second compound 0.00949 µM) was 940 nM. For the same molecule, the IC50 (second compound 0.03 µM) was 848 nM, the IC50 (second compound 0.0949 µM) was > 1000 nM and the IC50 (second compound 0.3 µM) was 661 nM. It also gave a viability, T/C (second compound 0.000949 µM, first compound 0.00316 µM) of 95.6%, a viability, T/C (second compound 0.000949 µM, first compound 0.01 µM) of 94.9% and a viability, T/C (second compound 0.000949 µM, first compound 0.0316 µM) of 102%. The viability, T/C (second compound 0.000949 µM, first compound 0.1 µM) was 84.4%, the viability, T/C (second compound 0.000949 µM, first compound 0.316 µM) was 78.9% and the viability, T/C (second compound 0.000949 µM, first compound 1 µM) was 60.3%. The viability, T/C (second compound 0.003 µM, first compound 0.00316 µM) was 76.5%, the viability, T/C (second compound 0.003 µM, first compound 0.01 µM) was 82.9% and the viability, T/C (second compound 0.003 µM, first compound 0.0316 µM) was 99.5%. It also gave a viability, T/C (second compound 0.003 µM, first compound 0.1 µM) of 79.5%, a viability, T/C (second compound 0.003 µM, first compound 0.316 µM) of 86.1% and a viability, T/C (second compound 0.003 µM, first compound 1 µM) of 59.4%. It also gave a viability, T/C (second compound 0.00949 µM, first compound 0.00316 µM) of 79.6%, a viability, T/C (second compound 0.00949 µM, first compound 0.01 µM) of 84.6% and a viability, T/C (second compound 0.00949 µM, first compound 0.0316 µM) of 85.2%. It also gave a viability, T/C (second compound 0.00949 µM, first compound 0.1 µM) of 89%, a viability, T/C (second compound 0.00949 µM, first compound 0.316 µM) of 83.9% and a viability, T/C (second compound 0.00949 µM, first compound 1 µM) of 48.1%. The viability, T/C (second compound 0.03 µM, first compound 0.00316 µM) was 72.8%, the viability, T/C (second compound 0.03 µM, first compound 0.01 µM) was 86.5% and the viability, T/C (second compound 0.03 µM, first compound 0.0316 µM) was 101%. It also gave a viability, T/C (second compound 0.03 µM, first compound 0.1 µM) of 74.1%, a viability, T/C (second compound 0.03 µM, first compound 0.316 µM) of 84.1% and a viability, T/C (second compound 0.03 µM, first compound 1 µM) of 44.3%. For the same molecule, the viability, T/C (second compound 0.0949 µM, first compound 0.00316 µM) was 88%, the viability, T/C (second compound 0.0949 µM, first compound 0.01 µM) was 83.3% and the viability, T/C (second compound 0.0949 µM, first compound 0.0316 µM) was 99.1%. It also gave a viability, T/C (second compound 0.0949 µM, first compound 0.1 µM) of 82.5%, a viability, T/C (second compound 0.0949 µM, first compound 0.316 µM) of 72.6% and a viability, T/C (second compound 0.0949 µM, first compound 1 µM) of 56%. For the same molecule, the viability, T/C (second compound 0.3 µM, first compound 0.00316 µM) was 89.4%, the viability, T/C (second compound 0.3 µM, first compound 0.01 µM) was 78.5% and the viability, T/C (second compound 0.3 µM, first compound 0.0316 µM) was 84.2%. It also gave a viability, T/C (second compound 0.3 µM, first compound 0.1 µM) of 82.9%, a viability, T/C (second compound 0.3 µM, first compound 0.316 µM) of 62.9% and a viability, T/C (second compound 0.3 µM, first compound 1 µM) of 42.8%.

Work on `CC1(C)CCC(Nc2ncc(C(F)(F)F)c(-c3c[nH]c4c(P(C)(C)=O)c(C#N)ccc34)n2)CN1` (stereo unspecified) + C=CC(=O)N1CCN(c2nc(OCC3CCCN3C)nc3c(F)c(-c4nc(N)cc(C)c4C(F)(F)F)c(Cl)cc23)C(C)C1 yielded an IC50 (second compound 0.00316 µM) of 10.2 nM, an IC50 (second compound 0.01 µM) of 12.4 nM and an IC50 (second compound 0.0316 µM) of 6.79 nM. For the same molecule, the IC50 (second compound 0.1 µM) was 13.1 nM, the IC50 (second compound 0.316 µM) was 12.2 nM and the IC50 (second compound 1 µM) was 13.8 nM. The viability, T/C (second compound 0.00316 µM, first compound 0.000949 µM) was 103%, the viability, T/C (second compound 0.00316 µM, first compound 0.003 µM) was 113% and the viability, T/C (second compound 0.00316 µM, first compound 0.00949 µM) was 52.6%. It also gave a viability, T/C (second compound 0.00316 µM, first compound 0.03 µM) of 14%, a viability, T/C (second compound 0.00316 µM, first compound 0.0949 µM) of 9.67% and a viability, T/C (second compound 0.00316 µM, first compound 0.3 µM) of 8.68%. The viability, T/C (second compound 0.01 µM, first compound 0.000949 µM) was 102%, the viability, T/C (second compound 0.01 µM, first compound 0.003 µM) was 124% and the viability, T/C (second compound 0.01 µM, first compound 0.00949 µM) was 61.4%. The viability, T/C (second compound 0.01 µM, first compound 0.03 µM) was 16.4%, the viability, T/C (second compound 0.01 µM, first compound 0.0949 µM) was 8.51% and the viability, T/C (second compound 0.01 µM, first compound 0.3 µM) was 9.49%. For the same molecule, the viability, T/C (second compound 0.0316 µM, first compound 0.000949 µM) was 97.4%, the viability, T/C (second compound 0.0316 µM, first compound 0.003 µM) was 99.6% and the viability, T/C (second compound 0.0316 µM, first compound 0.00949 µM) was 30.1%. It also gave a viability, T/C (second compound 0.0316 µM, first compound 0.03 µM) of 15.9%, a viability, T/C (second compound 0.0316 µM, first compound 0.0949 µM) of 10.5% and a viability, T/C (second compound 0.0316 µM, first compound 0.3 µM) of 9.47%. For the same molecule, the viability, T/C (second compound 0.1 µM, first compound 0.000949 µM) was 118%, the viability, T/C (second compound 0.1 µM, first compound 0.003 µM) was 117% and the viability, T/C (second compound 0.1 µM, first compound 0.00949 µM) was 64%. The viability, T/C (second compound 0.1 µM, first compound 0.03 µM) was 13.9%, the viability, T/C (second compound 0.1 µM, first compound 0.0949 µM) was 9.91% and the viability, T/C (second compound 0.1 µM, first compound 0.3 µM) was 8.45%. It also gave a viability, T/C (second compound 0.316 µM, first compound 0.000949 µM) of 103%, a viability, T/C (second compound 0.316 µM, first compound 0.003 µM) of 108% and a viability, T/C (second compound 0.316 µM, first compound 0.00949 µM) of 59.7%. The viability, T/C (second compound 0.316 µM, first compound 0.03 µM) was 15.8%, the viability, T/C (second compound 0.316 µM, first compound 0.0949 µM) was 8.13% and the viability, T/C (second compound 0.316 µM, first compound 0.3 µM) was 8.27%. For the same molecule, the viability, T/C (second compound 1 µM, first compound 0.000949 µM) was 113%, the viability, T/C (second compound 1 µM, first compound 0.003 µM) was 118% and the viability, T/C (second compound 1 µM, first compound 0.00949 µM) was 67.2%. It also gave a viability, T/C (second compound 1 µM, first compound 0.03 µM) of 15.6%, a viability, T/C (second compound 1 µM, first compound 0.0949 µM) of 9.94% and a viability, T/C (second compound 1 µM, first compound 0.3 µM) of 7.89%.

`C=CC(=O)N1CCN(c2nc(OCC3CCCN3C)nc3c(F)c(-c4nc(N)cc(C)c4C(F)(F)F)c(Cl)cc23)C(C)C1` (stereo unspecified) + C#Cc1c(F)ccc2cc(O)cc(-c3ncc4c(N5CC6CCC(C5)N6)nc(OCC56CCCN5CC(F)C6)nc4c3F)c12 was tested, and the IC50 (second compound 0.0316 µM) was > 1000 nM, the IC50 (second compound 0.1 µM) was > 1000 nM and the IC50 (second compound 0.316 µM) was > 1000 nM. The IC50 (second compound 1 µM) was > 1000 nM, the IC50 (second compound 3.16 µM) was > 1000 nM and the IC50 (second compound 10 µM) was > 1000 nM. The viability, T/C (second compound 0.0316 µM, first compound 0.00316 µM) was 106%, the viability, T/C (second compound 0.0316 µM, first compound 0.01 µM) was 99.5% and the viability, T/C (second compound 0.0316 µM, first compound 0.0316 µM) was 88.7%. The viability, T/C (second compound 0.0316 µM, first compound 0.1 µM) was 98.2%, the viability, T/C (second compound 0.0316 µM, first compound 0.316 µM) was 108% and the viability, T/C (second compound 0.0316 µM, first compound 1 µM) was 91.5%. It also gave a viability, T/C (second compound 0.1 µM, first compound 0.00316 µM) of 108%, a viability, T/C (second compound 0.1 µM, first compound 0.01 µM) of 107% and a viability, T/C (second compound 0.1 µM, first compound 0.0316 µM) of 91.1%. For the same molecule, the viability, T/C (second compound 0.1 µM, first compound 0.1 µM) was 95.9%, the viability, T/C (second compound 0.1 µM, first compound 0.316 µM) was 83.8% and the viability, T/C (second compound 0.1 µM, first compound 1 µM) was 83.3%. It also gave a viability, T/C (second compound 0.316 µM, first compound 0.00316 µM) of 105%, a viability, T/C (second compound 0.316 µM, first compound 0.01 µM) of 99.5% and a viability, T/C (second compound 0.316 µM, first compound 0.0316 µM) of 102%. It also gave a viability, T/C (second compound 0.316 µM, first compound 0.1 µM) of 99.7%, a viability, T/C (second compound 0.316 µM, first compound 0.316 µM) of 97% and a viability, T/C (second compound 0.316 µM, first compound 1 µM) of 80.7%. The viability, T/C (second compound 1 µM, first compound 0.00316 µM) was 97%, the viability, T/C (second compound 1 µM, first compound 0.01 µM) was 111% and the viability, T/C (second compound 1 µM, first compound 0.0316 µM) was 117%. For the same molecule, the viability, T/C (second compound 1 µM, first compound 0.1 µM) was 103%, the viability, T/C (second compound 1 µM, first compound 0.316 µM) was 92.5% and the viability, T/C (second compound 1 µM, first compound 1 µM) was 96.8%. For the same molecule, the viability, T/C (second compound 3.16 µM, first compound 0.00316 µM) was 96.9%, the viability, T/C (second compound 3.16 µM, first compound 0.01 µM) was 107% and the viability, T/C (second compound 3.16 µM, first compound 0.0316 µM) was 113%. For the same molecule, the viability, T/C (second compound 3.16 µM, first compound 0.1 µM) was 102%, the viability, T/C (second compound 3.16 µM, first compound 0.316 µM) was 110% and the viability, T/C (second compound 3.16 µM, first compound 1 µM) was 92.7%. For the same molecule, the viability, T/C (second compound 10 µM, first compound 0.00316 µM) was 118%, the viability, T/C (second compound 10 µM, first compound 0.01 µM) was 82.8% and the viability, T/C (second compound 10 µM, first compound 0.0316 µM) was 91.6%. For the same molecule, the viability, T/C (second compound 10 µM, first compound 0.1 µM) was 96.4%, the viability, T/C (second compound 10 µM, first compound 0.316 µM) was 89.9% and the viability, T/C (second compound 10 µM, first compound 1 µM) was 92.2%.
